Data reported in patent EP4461294A1, “LIPOLYTIC AND ANTIADIPOGENIC COUMARIN DERIVATIVES” (Karl-Franzens-Universität Graz, priority 2023, dated 2024).

Tests used:
Type in all cases: cell-based
mature 3T3-L1 cells [1] = test: Forskolin-stimulated lipolysis, release of free fatty acids into the medium; conditions: for forskolin-induced lipolysis: 3 h
Method: (§1) 3T3-L1 preadipocytes were seeded onto 6-well plates and cultured in DMEM (D5796; high glucose) supplemented with 10% fetal bovine serum, penicillin, and streptomycin at 37 °C in 5% CO2 atmosphere and 80% humidity. Differentiation of cells were performed for 10 days as described in 2.4. Mature adipocytes were washed twice in low glucose containing DMEM (D4947). Lipolysis was induced by addition of the adenylyl cyclase activator forskolin (10 µM) and cells were incubated in medium containing 2% fatty acid-free BSA for up to 6 h in the absence and presence of coumarins. In basal lipolysis experiments, forskolin was excluded. Aliquots of the medium were collected and release of free fatty acids (FFAs) was measured using the NEFA Assay Kit from FUJIFILM Wako Chemicals Europe GmbH (Neuss, Germany) (ASC-ACOD method) according to the manufacturer's instructions.

PPARγ = test: Western blot, protein expression of PPARγ during adipogenesis of 3T3-L1 cells; conditions: adipogenesis terminated at day 7, increasing concentrations
Method: (§2) 3T3-L1 preadipocytes were cultured in DMEM (D5796, high glucose) supplemented with 10% FBS, penicillin, and streptomycin at 37 °C in 5% CO2 atmosphere and 80% humidity. For long-term experiments, cells were seeded onto 6-well plates and grown to confluence. Adipogenesis was induced 48 h post confluence (day 0) by addition of culture medium containing […], […] dexamethasone, and 500 µM 3-isobutyl-1-methylxan-thine (IBMX). Experiments were performed in the absence and presence of increasing concentrations of ethanolic citrus extracts (total peel, flavedo and albedo layers) or commercially available citropten, bergamottin and 5-geranyloxy-7-methox-ycoumarin. Ethanol (0.1%) served as vehicle. At days 3 and 5, medium was replaced by fresh medium supplemented with 10 pg/ml and 0.2 ug/ml insulin, respectively, with and without compounds. At day 7, adipogenesis was terminated by harvest of cells. In a short-term approach, differentiation was performed for 24 h. […]
(§3) Lysates were denaturated by boiling with 5-fold Laemmli buffer for 10 min at 95 °C. […] After incubation of membranes with respective horseradish peroxidase-conjugated IgGs immunoreactive bands were visualized using Western Bright™ ECL or Western Bright™ Quantum substrates (Biozym, Austria) and chemiluminescence was quantified with the Fusion SL Imaging System (VWR International GmbH).

C/EBPα = test: Western blot, protein expression of C/EBPα during adipogenesis of 3T3-L1 cells; conditions: adipogenesis terminated at day 7, increasing concentrations
Method: as §2, §3

C/EBPβ [2] = test: Western blot, protein expression of C/EBPβ (isoforms LAP*, LAP, LIP) in 3T3-L1 cells; conditions: for protein expression of C/EBPβ (isoforms LAP*, LAP and LIP): 10 µg/ml each
Method: 3T3-L1 preadipocytes were cultured in DMEM (D5796, high glucose) supplemented with 10% FBS, penicillin, and streptomycin at 37 °C in 5% CO2 atmosphere and 80% humidity. For long-term experiments, cells were seeded onto 6-well plates and grown to confluence. Adipogenesis was induced 48 h post confluence (day 0) by addition of culture medium containing […], 0.4 pg/ml dexamethasone, and 500 µM 3-isobutyl-1-methylxan-thine (IBMX). Experiments were performed in the absence and presence of increasing concentrations of ethanolic citrus extracts (total peel, flavedo and albedo layers) or commercially available citropten, bergamottin and 5-geranyloxy-7-methox-ycoumarin. Ethanol (0.1%) served as vehicle. At days 3 and 5, medium was replaced by fresh medium supplemented with 10 pg/ml and 0.2 ug/ml insulin, respectively, with and without compounds. At day 7, adipogenesis was terminated by harvest of cells. In a short-term approach, differentiation was performed for 24 h. Cells were harvested by treatment with RIPA buffer (#R0278, Sigma) containing EDTA (2 mM) and cOmplete Protease Inhibitor Cocktail (total volume of 150 µl per well) and scraped off mechanically. Cell suspensions were transferred to Eppendorf vials, homogenized by repeated sonication, and kept on ice for 10 min. Aliquots were stored at 4 °C for measurement of triglycerides (TGs) and total cellular protein content. For Western blot experiments homogenates were stored at -80 °C.
Lysates were denaturated by boiling with 5-fold Laemmli buffer for 10 min at 95 °C. Samples containing 15 µg of protein were separated by SDS-PAGE on 8-12% gels for 45 min at 180 V. Thereafter, proteins were transferred onto nitrocellulose membranes for 90 min (240 mA). After blocking with Tris-buffered saline containing 0.1% (v/v) Tween-20 and 5% non-fat dry milk for 1 h (ambient temperature) membranes were incubated overnight at 4 °C with primary antibodies. After incubation of membranes with respective horseradish peroxidase-conjugated IgGs immunoreactive bands were visualized using Western Bright™ ECL or Western Bright™ Quantum substrates (Biozym, Austria) and chemiluminescence was quantified with the Fusion SL Imaging System (VWR International GmbH).

C/EBPδ [3] = test: Western blot, protein expression of C/EBPδ in 3T3-L1 cells; conditions: 10 pg/ml each
Method: as §2, §3

C/EBPβ [4] = test: Dual luciferase reporter assay, transcriptional activity of C/EBPβ in HEK293 cells; conditions: 24 h; for transcriptional activity of C/EBPβ: 10 µg/ml
Method: (§4) At 80-90% confluence, HEK293 cells were co-transfected with C/EBPβ or C/EBPδ DNA (1 µg each) and Cignal Reporter (0,5 µg) in serum- and antibiotic-free medium using TurboFect™ Transfection Reagent (ThermoFisher Scientific). Cells were incubated for 24 h in the absence and presence of citropten, bergamottin or 5-geranyloxy-7-methoxycoumarin. Thereafter, cells were harvested and lysed according to the manufacturer's instructions. Activities of firefly luciferase and Renilla luciferase were sequentially measured as biolumi-nescence using the GloMax Discover System GM3000 (Promega) as described. Luminescence of each sample was normalized to Renilla luciferase activity.

C/EBPδ [5] = test: Dual luciferase reporter assay, transcriptional activity of C/EBPδ in HEK293 cells; conditions: 10 µg/ml, 24 h
Method: as §4, with “Transcriptional activities of C/EBPβ and C/EBP6 were measured using the C/EBP Cignal™ Reporter Assay (CCS-001L; dual luc) from Qiagen (Germany) and the Dual-Luciferase® Reporter Assay System (E1910; Promega Corporation, Germany) as recently described (Mussbacher et al., 2019, Sci Rep, 9(1), 15403. https://doi.org/10.1038/s41598-019-51579-x). pcDNA-mC/EBPβ (Addgene plasmid # 49198) and pcDNA-mC/EBP6 (Addgene plasmid #12559) were gifts from Jed Friedman and Peter Johnson, respectively. At” for “At”

AMPK = test: Western blot, expression and phosphorylation of AMPK, short-term experiments in 3T3-L1 cells; conditions: 10 µg/ml, short-term (24 h), compared to controls
Method: as §2, §3

[6] = tested on: acetyl-CoA carboxylase (ACC); test: Western blot, expression and phosphorylation of ACC, short-term experiments in 3T3-L1 cells
Method: as §2, §3

mature 3T3-L1 cells [7] = test: Basal lipolysis, release of free fatty acids into the medium (forskolin excluded); set-up: dose or concentration left out as unconfirmed; conditions: without forskolin, 3 h
Method: as §1

With `O=c1ccc2cc(O)c(O)cc2o1` [esculetin, 6,7-dihydroxy-2H-chromen-2-one] the forskolin-induced lipolysis (mature 3T3-L1 cells [1]; 56 µM (10 µg/ml)) was “did not significantly enhance”.
For `COc1cc2oc(=O)ccc2cc1O` [isoscopoletin, 6-hydroxy-7-methoxy-2H-chromen-2-one], the forskolin-induced lipolysis (mature 3T3-L1 cells [1]; 56 µM (10 µg/ml)) was “did not significantly enhance”.
For `COc1cc(OC/C=C(\C)CCC=C(C)C)c2ccc(=O)oc2c1` [5-geranyloxy-7-methoxycoumarin, 5-[(2E)-3,7-dimethylocta-2,6-dienoxy]-7-methoxychromen-2-one], the “protein expression of PPARγ” value (PPARγ) was “concentration-dependently suppressed”, the “protein expression of C/EBPα” value (C/EBPα) was “concentration-dependently suppressed” and the “protein expression of C/EBPβ (isoforms LAP*, LAP and LIP)” value (C/EBPβ [2]) was “not affected”. For the same compound, the “protein expression of C/EBP6” value (C/EBPδ [3]) was “not affected”, the “transcriptional activity of C/EBPβ” value (C/EBPβ [4]) was “not affected” and the “transcriptional activity of C/EBP6 (C/EBPδ-dependent transcriptional activity)” value (C/EBPδ [5]) was “tendency to decrease”. The “transcriptional activity of C/EBP6 (C/EBPδ-dependent transcriptional activity)” value (C/EBPδ [5]; listed as 5-geranyloxy-7-methoxy-coumarin) was “not affected”, the “phosphorylation of AMPK at Thr172” value (AMPK) was “more than doubled” and the fold induction at 10 µg/mL ([6]; Mus musculus, 3T3-L1, short-term (24 h), compared to controls, read-out: phosphorylation of acetyl-CoA carboxylase (ACC) at Ser79) was roughly 3.
In the case of `CC(C)=CCC/C(C)=C/COc1c2ccoc2cc2oc(=O)ccc12` [bergamottin, 4-[(2E)-3,7-dimethylocta-2,6-dienoxy]furo[3,2-g]chromen-7-one], the “protein expression of PPARγ” value (PPARγ) is reported as “concentration-dependently suppressed”, the “protein expression of C/EBPα” value (C/EBPα) is reported as “concentration-dependently suppressed” and the “protein expression of C/EBPβ (isoforms LAP*, LAP and LIP)” value (C/EBPβ [2]) is reported as “not affected”. For the same compound, the “protein expression of C/EBP6” value (C/EBPδ [3]) was “not affected”, the “transcriptional activity of C/EBPβ” value (C/EBPβ [4]) was “not affected” and the “transcriptional activity of C/EBP6 (C/EBPδ-dependent transcriptional activity)” value (C/EBPδ [5]) was “not affected”. The “phosphorylation of AMPK at Thr172” value (AMPK) was “significantly increased”, the “phosphorylation of ACC (Ser79)” value ([6]; 10 µg/ml, short-term experiments, p<0.05 vs vehicle-treated cells) was “significantly increased” and the forskolin-induced lipolysis (mature 3T3-L1 cells [1]; 30 µM (10 µg/ml)) was “did not significantly enhance”.
With `COc1ccc2ccc(=O)oc2c1` [herniarin, 7-methoxy-2H-chromen-2-one] the forskolin-induced lipolysis (mature 3T3-L1 cells [1]; 141 µM (25 µg/ml)) was “did not significantly enhance”.
In the case of `COc1cc(OC)c2ccc(=O)oc2c1` [citropten, 5,7-dimethoxy-2H-chromen-2-one], the “expression of LIP” value (C/EBPβ [2]; 25 µg/ml, p<0.05 vs vehicle-treated cells) is reported as “significantly upregulated”, the “protein expression of C/EBPβ” value (C/EBPβ [2]; citropten 25 µg/ml) is reported as “increased” and the “activity of C/EBPβ” value (C/EBPβ [4]; citropten 25 µg/ml) is reported as “increased”. For the same compound, the forskolin-induced lipolysis (mature 3T3-L1 cells [1]; 10 pg/ml (≈ 48 µM)) was “significant effect”, the activity at 120 µM (mature 3T3-L1 cells [1]; Mus musculus, 3T3-L1, 25 µg/ml (≈ 120 µM), 3-4 h after induction of lipolysis, read-out: effect on forskolin-stimulated lipolysis (release of FFAs), maximal) was 185 to 190% and the forskolin-stimulated lipolysis (mature 3T3-L1 cells [1]; forskolin 10 µM, time- and concentration-dependent manner) was “enhanced”. The “release of FFAs” value (mature 3T3-L1 cells [1]; forskolin-stimulated, 25 µg/ml (≈ 120 µM), within 0.5 and 6 h) was “significantly increased” and the “basal release of FFAs” value (mature 3T3-L1 cells [7]) was “increased”.
